For assay [1], the target named is T1, Very long-chain specific acyl-CoA dehydrogenase, mitochondrial (Homo sapiens, UniProt P49748).
T1 sequence (P49748 whole entry): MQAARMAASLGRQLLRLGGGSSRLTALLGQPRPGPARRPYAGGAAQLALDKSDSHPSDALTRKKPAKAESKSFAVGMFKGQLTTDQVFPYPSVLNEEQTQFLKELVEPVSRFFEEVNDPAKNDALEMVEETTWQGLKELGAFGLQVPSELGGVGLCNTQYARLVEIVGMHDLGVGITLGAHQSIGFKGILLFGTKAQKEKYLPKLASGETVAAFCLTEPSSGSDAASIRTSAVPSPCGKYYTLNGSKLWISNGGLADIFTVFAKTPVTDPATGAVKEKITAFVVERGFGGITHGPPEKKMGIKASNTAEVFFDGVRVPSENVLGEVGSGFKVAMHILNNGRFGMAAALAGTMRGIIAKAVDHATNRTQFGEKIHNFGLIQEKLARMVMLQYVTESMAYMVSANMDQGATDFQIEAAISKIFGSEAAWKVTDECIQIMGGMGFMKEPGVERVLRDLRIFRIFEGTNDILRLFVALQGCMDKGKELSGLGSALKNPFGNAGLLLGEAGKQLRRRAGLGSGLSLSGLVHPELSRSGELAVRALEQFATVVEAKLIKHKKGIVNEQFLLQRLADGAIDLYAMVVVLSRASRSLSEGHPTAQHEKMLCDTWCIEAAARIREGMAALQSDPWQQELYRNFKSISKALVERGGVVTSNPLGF

The target in a further assay is LIM domain kinase 1 (Homo sapiens, UniProt P53667).
Assay [2] deals with Protein kinase C beta type (Homo sapiens, UniProt P05771).
In the next assay the target is T2, Ephrin type-A receptor 1 (Homo sapiens, UniProt P21709).
T2 sequence (P21709 whole entry): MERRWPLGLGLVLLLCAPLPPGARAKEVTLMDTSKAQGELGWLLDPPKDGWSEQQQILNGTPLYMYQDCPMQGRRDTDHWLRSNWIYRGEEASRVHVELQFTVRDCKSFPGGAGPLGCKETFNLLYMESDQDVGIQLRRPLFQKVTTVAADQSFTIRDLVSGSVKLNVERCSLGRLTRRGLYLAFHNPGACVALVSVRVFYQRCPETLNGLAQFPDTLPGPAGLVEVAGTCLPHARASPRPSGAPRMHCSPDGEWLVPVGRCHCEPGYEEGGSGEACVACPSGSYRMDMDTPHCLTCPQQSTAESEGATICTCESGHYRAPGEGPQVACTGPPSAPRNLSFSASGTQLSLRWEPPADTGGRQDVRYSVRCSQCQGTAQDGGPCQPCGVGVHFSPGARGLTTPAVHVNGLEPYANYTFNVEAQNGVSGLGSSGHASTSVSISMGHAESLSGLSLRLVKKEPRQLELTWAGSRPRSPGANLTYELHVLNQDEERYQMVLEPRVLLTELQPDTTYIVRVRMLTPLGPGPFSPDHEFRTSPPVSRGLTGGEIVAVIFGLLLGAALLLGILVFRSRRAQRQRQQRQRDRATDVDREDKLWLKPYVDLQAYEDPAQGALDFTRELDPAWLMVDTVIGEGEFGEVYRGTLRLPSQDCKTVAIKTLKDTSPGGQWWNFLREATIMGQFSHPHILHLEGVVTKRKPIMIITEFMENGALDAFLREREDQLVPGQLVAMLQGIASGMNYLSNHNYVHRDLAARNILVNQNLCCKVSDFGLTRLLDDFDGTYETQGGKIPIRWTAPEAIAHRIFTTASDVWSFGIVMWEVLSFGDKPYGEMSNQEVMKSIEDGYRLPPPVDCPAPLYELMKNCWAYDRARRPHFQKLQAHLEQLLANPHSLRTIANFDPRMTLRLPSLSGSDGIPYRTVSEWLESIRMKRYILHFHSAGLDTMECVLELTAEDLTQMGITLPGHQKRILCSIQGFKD

The target in assay [3] is T3, Serine/threonine-protein kinase TBK1 (Homo sapiens, UniProt Q9UHD2).
T3 sequence (Q9UHD2 whole entry): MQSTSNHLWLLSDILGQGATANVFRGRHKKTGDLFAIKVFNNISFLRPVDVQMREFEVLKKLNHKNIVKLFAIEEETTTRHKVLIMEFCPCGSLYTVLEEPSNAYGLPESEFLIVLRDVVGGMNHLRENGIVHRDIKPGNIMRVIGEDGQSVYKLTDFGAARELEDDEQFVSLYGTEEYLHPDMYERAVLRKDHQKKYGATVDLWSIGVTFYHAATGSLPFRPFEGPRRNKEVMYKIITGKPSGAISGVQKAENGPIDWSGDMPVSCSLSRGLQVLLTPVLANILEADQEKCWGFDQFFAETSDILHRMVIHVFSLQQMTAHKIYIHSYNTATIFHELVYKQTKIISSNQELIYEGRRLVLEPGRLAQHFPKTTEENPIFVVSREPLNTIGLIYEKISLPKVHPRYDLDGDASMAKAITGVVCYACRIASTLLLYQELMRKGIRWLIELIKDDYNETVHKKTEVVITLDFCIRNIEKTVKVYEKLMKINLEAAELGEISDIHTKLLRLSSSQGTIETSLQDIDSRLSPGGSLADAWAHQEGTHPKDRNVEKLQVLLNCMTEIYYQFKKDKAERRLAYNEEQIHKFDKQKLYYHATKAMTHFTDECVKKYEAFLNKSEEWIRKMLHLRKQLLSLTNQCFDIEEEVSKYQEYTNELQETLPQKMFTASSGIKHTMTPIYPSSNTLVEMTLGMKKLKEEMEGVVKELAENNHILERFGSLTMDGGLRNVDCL

Calls of active or inactive are those of the source. Cut-off read from the data, not from the text of the source, for most assays here: actives have a measured Kd and inactives only a lower limit.
Note: in the data inactive means no Kd found up to 30 µM.

Chain of LIM domain kinase 1 (P53667 whole entry, the tested form may be a part): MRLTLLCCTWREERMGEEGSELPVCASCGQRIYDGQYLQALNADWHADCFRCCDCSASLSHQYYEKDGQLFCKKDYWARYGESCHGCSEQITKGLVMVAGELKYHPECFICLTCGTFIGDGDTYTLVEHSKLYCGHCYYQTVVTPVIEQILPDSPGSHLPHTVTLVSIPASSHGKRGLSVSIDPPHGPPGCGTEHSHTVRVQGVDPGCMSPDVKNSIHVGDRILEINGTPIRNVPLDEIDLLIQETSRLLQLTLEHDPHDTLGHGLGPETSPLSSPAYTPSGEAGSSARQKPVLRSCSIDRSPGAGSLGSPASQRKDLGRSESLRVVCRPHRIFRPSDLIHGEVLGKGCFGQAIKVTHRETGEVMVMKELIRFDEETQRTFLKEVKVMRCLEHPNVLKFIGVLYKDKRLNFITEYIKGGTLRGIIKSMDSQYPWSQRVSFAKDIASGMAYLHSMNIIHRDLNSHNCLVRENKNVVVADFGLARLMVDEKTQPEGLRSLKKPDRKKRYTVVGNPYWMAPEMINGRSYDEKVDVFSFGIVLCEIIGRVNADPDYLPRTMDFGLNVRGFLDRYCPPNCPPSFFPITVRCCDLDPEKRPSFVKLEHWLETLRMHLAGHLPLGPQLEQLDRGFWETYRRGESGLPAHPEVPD
Chain of Protein kinase C beta type (P05771 whole entry): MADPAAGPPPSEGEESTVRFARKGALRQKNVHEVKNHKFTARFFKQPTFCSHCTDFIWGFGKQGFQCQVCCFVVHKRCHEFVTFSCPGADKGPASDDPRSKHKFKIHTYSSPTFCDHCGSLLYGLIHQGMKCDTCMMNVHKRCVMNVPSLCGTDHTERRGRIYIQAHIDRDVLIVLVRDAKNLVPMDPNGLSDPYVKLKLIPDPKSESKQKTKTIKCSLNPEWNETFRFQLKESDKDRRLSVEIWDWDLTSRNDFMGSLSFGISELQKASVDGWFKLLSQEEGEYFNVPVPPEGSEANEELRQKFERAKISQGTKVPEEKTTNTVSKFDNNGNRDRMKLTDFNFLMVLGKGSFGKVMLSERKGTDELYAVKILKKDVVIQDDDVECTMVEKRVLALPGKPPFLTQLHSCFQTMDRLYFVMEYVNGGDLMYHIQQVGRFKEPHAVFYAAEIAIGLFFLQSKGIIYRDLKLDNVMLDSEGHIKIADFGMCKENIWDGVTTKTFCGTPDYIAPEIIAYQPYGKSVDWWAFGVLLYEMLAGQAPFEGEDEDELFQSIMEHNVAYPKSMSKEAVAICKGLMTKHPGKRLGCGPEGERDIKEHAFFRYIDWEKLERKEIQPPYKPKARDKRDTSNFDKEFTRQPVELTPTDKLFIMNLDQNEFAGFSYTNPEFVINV

For the compound `C[C@@H](Oc1cc(C(=O)Nc2ccc(C(=O)N3CCN(C)CC3)cc2)nnc1N)c1c(Cl)ccc(F)c1Cl`, the Kd (in assay [1]; at LIM domain kinase 1; in assay [2]; at Ephrin type-A receptor 1; in assay [3]) was > 30 µM (inactive) each time.

Regarding `C[C@H]1CNCCCN1S(=O)(=O)c1cccc2cncc(F)c12`, the Kd (in assay [1]; at LIM domain kinase 1; in assay [2]; at Ephrin type-A receptor 1; in assay [3]) was > 30 µM (inactive) in each case.

With `CCNC(=O)C#Cc1ccc2c(c1)NC(=O)/C2=C(\Nc1ccc(CN(C)C)cc1)c1ccccc1`, the Kd (usually the constant that tells how readily two partners part at equilibrium) was > 30 µM (inactive) in assay [1]; > 30 µM (inactive) at LIM domain kinase 1; > 30 µM (inactive) in assay [2]; > 30 µM (inactive) on Ephrin type-A receptor 1; 0.759 µM (active) in assay [3].

Take `C=CC(=O)N1CCC[C@H](n2c(=O)n(-c3ccc(Oc4ccccc4)cc3)c3c(N)ncnc32)C1`: the Kd (in assay [1]; at LIM domain kinase 1; in assay [2]; on Ephrin type-A receptor 1; in assay [3]) was > 30 µM (inactive) in each case.

In the case of `Cc1nc2cc(-c3nn(C(C)C)c4ncnc(N)c34)ccc2o1`, the Kd in assay [1] was > 30 µM (inactive); at LIM domain kinase 1, 1.85 µM (active); in assay [2], > 30 µM (inactive); on Ephrin type-A receptor 1, > 30 µM (inactive); in assay [3], > 30 µM (inactive).

In the case of `COCc1c(-c2ccc(NC(=O)Nc3cc(C(F)(F)F)ccc3F)c(F)c2)c2c(N)ncnn2c1CN1CCOCC1`, the Kd (in assay [1]; on LIM domain kinase 1; in assay [2]; at Ephrin type-A receptor 1; in assay [3]) was > 30 µM (inactive) throughout.

For the compound `Nc1ncnc2c1c(-c1cccc(OCc3ccccc3)c1)cn2[C@H]1C[C@@H](CN2CCC2)C1` [AEW-541], the Kd (in assay [1]; at LIM domain kinase 1; in assay [2]; on Ephrin type-A receptor 1; in assay [3]) was > 30 µM (inactive) throughout.

For the compound `Cc1nc(NC(=O)N2CCC[C@H]2C(N)=O)sc1-c1ccnc(C(C)(C)C(F)(F)F)c1` [ALPELISIB], the Kd (in assay [1]; on LIM domain kinase 1; in assay [2]; at Ephrin type-A receptor 1; in assay [3]) was > 30 µM (inactive) each time.

As for `C=CC(=O)Nc1cc2c(Nc3ccc(F)c(Cl)c3)ncnc2cc1C#CC(C)(C)N1CCN(C)CC1` [AV-412 FREE BASE], the Kd (in assay [1]; on LIM domain kinase 1; in assay [2]; on Ephrin type-A receptor 1; in assay [3]) was > 30 µM (inactive) in each case.

For the compound `COc1cc([C@@H]2c3cc4c(cc3[C@H](O)[C@H]3COC(=O)[C@@H]23)OCO4)cc(OC)c1OC` [AXL-1717], the Kd (in assay [1]; at LIM domain kinase 1; in assay [2]; on Ephrin type-A receptor 1; in assay [3]) was > 30 µM (inactive) each time.

In the case of `Cn1cnc2c(F)c(Nc3ccc(Br)cc3F)c(C(=O)NOCCO)cc21` [BINIMETINIB], the Kd (in assay [1]; on LIM domain kinase 1; in assay [2]; at Ephrin type-A receptor 1; in assay [3]) was > 30 µM (inactive) in each case.

Take `CCn1c(C(=O)N(C2CC2)C2CC2)cc2c3c(ncn3C)c(Nc3cc(C)n(C)n3)nc21` [BMS-911543]: the Kd (in assay [1]; on LIM domain kinase 1; in assay [2]; on Ephrin type-A receptor 1; in assay [3]) was > 30 µM (inactive) throughout.

As for `COc1cc2ncnc(Oc3cccc(NC(=O)Nc4cc(C(C)(C)C(F)(F)F)on4)c3)c2cc1OC` [CEP-32496], the Kd (in assay [1]; on LIM domain kinase 1; in assay [2]; on Ephrin type-A receptor 1; in assay [3]) was > 30 µM (inactive) throughout.

Consider `Cc1cc(Nc2ncc(Cl)c(Nc3ccccc3S(=O)(=O)C(C)C)n2)c(OC(C)C)cc1C1CCNCC1` [CERITINIB], for which the Kd (in assay [1]; on LIM domain kinase 1; in assay [2]; at Ephrin type-A receptor 1; in assay [3]) was > 30 µM (inactive) throughout.

As to `COCC(=O)NC/C=C/c1ccc2ncnc(Nc3ccc(Oc4ccc(C)nc4)c(C)c3)c2c1` [CP-724714], the Kd (in assay [1]; on LIM domain kinase 1; in assay [2]; at Ephrin type-A receptor 1; in assay [3]) was > 30 µM (inactive) throughout.

Turning to `C#Cc1cccc(Nc2ncnc3cc(OC)c(OCCCCCCC(=O)NO)cc23)c1` [CUDC-101], the Kd (in assay [1]; at LIM domain kinase 1; in assay [2]; at Ephrin type-A receptor 1; in assay [3]) was > 30 µM (inactive) each time.

Turning to `CC(C)(C)c1nc(-c2cccc(NS(=O)(=O)c3c(F)cccc3F)c2F)c(-c2ccnc(N)n2)s1` [DABRAFENIB], the Kd in assay [1] was > 30 µM (inactive); at LIM domain kinase 1, 0.033 µM (active); in assay [2], > 30 µM (inactive); at Ephrin type-A receptor 1, 0.705 µM; in assay [3], > 30 µM (inactive).

As for `O=C(Nc1nc2cccc(-c3ccc(CN4CCS(=O)(=O)CC4)cc3)n2n1)C1CC1` [FILGOTINIB], the Kd (in assay [1]; at LIM domain kinase 1; in assay [2]; at Ephrin type-A receptor 1; in assay [3]) was > 30 µM (inactive) each time.

In the case of `CCn1cc(-c2ccnc3[nH]c(-c4cccc(CN(C)C)c4)cc23)c(-c2ccc(NC(=O)N(C)C)cc2)n1` [GSK-1070916], the Kd (in assay [1]; at LIM domain kinase 1; in assay [2]; at Ephrin type-A receptor 1; in assay [3]) was > 30 µM (inactive) each time.

As for `COc1ccc(S(=O)(=O)N(C(C)=O)c2ccccc2/C=C/c2cc[n+]([O-])cc2)cc1` [HMN-214], the Kd (in assay [1]; on LIM domain kinase 1; in assay [2]; on Ephrin type-A receptor 1; in assay [3]) was > 30 µM (inactive) throughout.

The values are drawn from ChEMBL document CHEMBL3991601, “The target landscape of clinical kinase drugs” (Science, 2017).
